Series [1] concerns the target T1, Cathepsin V (Homo sapiens, UniProt O60911).
T1 construct: made in house; host or cells: Pichia pastoris
Description: Determination of relative inhibition, substrate Z-Phe-Arg-AMC. It counts as biochemical. The conditions noted are these: inhibitor 50 μM; substrate 2 μM; mean ± SD (n = 2); read-out: Cathepsin V Ri (%) relative inhibition. Here is the method: (§1) Human recombinant cathepsin V was expressed in Pichia Pastoris, and human recombinant cathepsin L was expressed in Escherichia coli, as reported, [51]. To determine the activities of cathepsins V and L, 100 mM acetate buffer (pH 5.5), containing 0.1 % PEG 8000 (Sigma-Aldrich, St. Louis, MO, USA), 5 mM cysteine, and 1.5 mM EDTA was used. Prior to the assay, the enzyme was activated in the assay buffer for 5 min at 37 °C.
(§2) The effect of the inhibitors on cathepsin V and L activity was determined using the substrate Z-Phe-Arg-AMC (Bachem, Bubendorf, Switzerland). The reaction was initiated by adding 90 μL of the activated enzyme (final concentration 2.5 ng/mL and 0.02 nM for cathepsins V and L, respectively) to the wells of a black microtiter plate containing 5 μL of substrate (with a final concentration 2 μM) and 5 μL of inhibitor (with a final concentration of 50 μM). The formation of fluorescent degradation products during the reaction was monitored continuously at 460 nm ± 10 nm with excitation at 380 nm ± 20 nm at 37 °C on a Tecan Infinite M1000 (Mannedorf, Switzerland) spectrofluorometer. All assay mixtures contained 5 % (v/v) DMSO. To prevent false-positive inhibition due to the formation of compound aggregates, 0.01 % Triton X-100 was used. All measurements were performed in triplicate and repeated at least twice. Relative inhibition was calculated using the following equation: relative inhibition (%) = 100(1- vi/vo), where vi and vo denote the reaction velocities in the presence and absence of the inhibitor, respectively.

In series [2] the target is T2, human recombinant cathepsin L (Homo sapiens, UniProt P07711).
T2 construct: made in house; host or cells: Escherichia coli
Described as above. It counts as biochemical. The conditions noted are these: inhibitor 50 μM; substrate 2 μM; mean ± SD (n = 2); read-out: Cathepsin L Ri (%) relative inhibition. Here is the method: as §1, §2

In series [3] the target is T1, Cathepsin V. Nature of the series: Determination of Ki values and mode of inhibition. It counts as biochemical. The procedure:
as §1
(§3) Inhibition constants were calculated from reaction velocities measured at three substrate concentrations (0.5, 1, and 4 μM) in the presence of inhibitors at seven concentrations (0, 20, 40, 60, 80, 100, and 200 µM). The reaction was initiated by adding 90 μL of enzyme at final concentrations of 2.5 ng/mL and 0.02 nM for cathepsins V and L, respectively, to the wells of a black microtiter plate containing 5 μL of substrate and 5 μL of inhibitor. To evaluate cathepsin V and L activity, the substrate Z-Phe-Arg-AMC was used. The formation of the fluorescent degradation products was monitored as described above. All assay mixtures contained 5 % (v/v) DMSO. All measurements were performed in duplicates and repeated at least twice. The SigmaPlot® 12, Enzyme Kinetics Module™ 1.3 was used to calculate Ki values.

Series [4] has as its target T2, human recombinant cathepsin L. Description: Determination of Ki values and mode of inhibition. It counts as biochemical. The conditions noted are these: for Ki: mean ± SD (n = 2). Here is the method:
as §1, §3

For series [5], the target named is T1, Cathepsin V. Description: Determination of binding reversibility (dilution method). It counts as biochemical. The following applies: inhibitor 100 μM, cathepsin V 500 ng/ml. The procedure: Binding reversibility was determined according to the dilution method, which measures the recovery of enzymatic activity after rapid dilution of the enzyme-inhibitor complex. Cathepsin V (500 ng/ml) was incubated in the assay buffer with the inhibitor (100 μM). Half of the reaction mixture was immediately diluted 100-fold with the assay buffer and added to the wells of a black microplate containing 5 μL of substrate (at a final concentration of 2 μM), and the activity was measured. The other half of the reaction mixture was incubated for 2 h before it was diluted 100-fold, and then the activity was measured. The assay was performed in triplicates and repeated at least two times.

For series [6], the system named is U-937-derived macrophages. Description: Intracellular elastin-FITC degradation. It counts as cell-based, human. The following applies: 24 h; for decrease of elastin-FITC degradation: 10 μM, vs DMSO; for effect on degradation of elastin-FITC compared to control cells: CLIK-148 1 μM, LHVS 10 nM. Here is the method:
To evaluate the effect of the inhibitors on the elastolytic activity of cathepsin V, we assessed the intracellular degradation of elastin-FITC, a soluble bovine neck ligament elastin that is heavily labeled with FITC such that the fluorescence of the conjugate is quenched. Upon proteolysis, fluorescence is recovered and can be detected. U-937 cells, differentiated into macrophage-like cells, were seeded (at 1 × 10^5 cells/well) into 24-well plates with 500 μL of medium supplemented with 50 nM PMA. Inhibitors or DMSO (0.1 %) and elastin-FITC (10 μg/mL; AnaSpec, Fermont, CA, USA) were added to the medium and incubated for 24 h at 37 °C. Cells were detached and washed with PBS, and propidium iodide (BD Bioscience) was added to exclude dead cells. Therefore, green fluorescence arising from elastin-FITC degradation was monitored only for viable cells. The measurement was performed using a FACSCalibur instrument (BD Biosciences).

Another series relates to MCF7 cells. Description: Proliferation assay (CFSE-labeled cells, flow cytometry). It counts as cell-based, human. The following applies: 72 h; E-64d 10 μM, pepstatin 20 μM, LHVS 10 nM, CLIK-148 1 μM. The procedure:
To assess the effect of cathepsin V inhibitors on cell proliferation, MCF7 cells were fluorescently labeled with carboxyfluorescein succinimidyl ester (CFSE; ImmunoChemistry Technologies, Bloomington, MN, USA) in PBS for 15 min at room temperature according to the manufacturer’s instructions. Cells were washed with PBS, resuspended in complete medium, seeded (at 4 × 10^4 cells/well) into 24-well plates, and allowed to adhere overnight. Cells were then treated with the following inhibitors: compound 7 (10 μM), E-64d (10 μM), CLIK-148 (1 μM), LHVS (10 nM), pepstatin (20 μM), their combinations, or DMSO (0.1 %) in 500 μL of medium for 72 h at 37 °C. To prepare cells for flow cytometry, cells were detached and transferred to round-bottomed polystyrene tubes and washed with PBS. Before measurement, 7-aminoactinomycin D (7-AAD; ImmunoChemistry Technologies, Bloomington, MN, USA) was added according to the manufacturer’s instructions to exclude dead cells. Therefore, the green fluorescence arising from CFSE was monitored only for viable cells. The measurement was performed using a FACSCalibur instrument (BD Biosciences, San Jose, CA, USA).
A general note: A flow cytometer gives signals particle by particle.

The test system of series [7] is cystatin F in U-937 cells. Description: Western blot of cystatin F dimer-to-monomer ratio. It counts as cell-based, human. The following applies: U-937 cell lysates, 6 h treatment, 10 and 20 μM, vs control. The procedure:
Cells were treated with E-64d or compound 7 (both at 10 µM or 20 µM) for 6 h. After treatment, whole-cell lysates were prepared in RIPA buffer supplemented with cOmplete™ Protease Inhibitor Cocktail (Roche, Basel, Switzerland) and centrifuged at 16 000 × g for 20 min at 4 °C. Total protein concentration was determined using the DC assay (Biorad, Hercules, CA, USA). Proteins were separated by non-reducing SDS-PAGE and transferred to a nitrocellulose membrane using the TransBlot Turbo System (Biorad). After blocking, the membranes were incubated with primary antibodies overnight at 4 °C and with secondary antibodies for 1 h at room temperature. Bands were visualized using Clarity Max Western ECL substrate (Biorad), and protein loading was checked using Stain Free technology (Biorad). Images were acquired using the ChemiDoc ML Imaging System (Biorad), and quantification analysis was performed using Image Lab software (Biorad).
The following primary antibodies were used: rabbit anti-cystatin F (1:375, HPA040442, Sigma), goat anti-cathepsin V (1:200, AF 1080, R&D, USA), and mouse anti-GAPDH (1:3000, 10494-I-AP, Proteintech, USA). […]
(Immunoblotting shows a protein as a band on a membrane.)

The subject of series [8] is NK-92 effector cells on target K-562 cells. Description: Calcein AM release assay (cytotoxicity). The following applies: effector cells treated 10 µM, 6 h. It counts as cell-based, human. The procedure: (§4) Effector cells (NK-92 or TALL-104; 1 × 10^6/ml) were treated with E-64d (10 µM) or compound 7 (10 µM) for 6 h. NK-92 cells were pre-treated with 1000 IU IL2/mL overnight prior to the addition of inhibitors. Effector cells were added to a 96-well U-bottom plate to achieve a selected effector-to-target ratio (E:T). Target K-562 cells were labelled with 15 µM Calcein-AM (Sigma) in serum-free RPMI 1640 medium for 30 min at 37 °C. Cells were then washed twice and resuspended in complete RPMI 1640 medium. Target cells (n = 5000) were added to the effectors. The plate was centrifuged at 200 × g for 1 min and incubated at 37 °C and 5 % CO2 for 4 h. After incubation, the plate was centrifuged at 700 × g for 5 min. The supernatant (50 µL) was transferred to a new microtiter plate to measure the fluorescence of the released Calcein-AM with a Tecan M1000 microtiter plate reader using 496 nm excitation and 516 nm emission filters. The percentage of cytotoxicity was calculated as follows: 100(test release-spontaneous release)/(total release-spontaneous release). Spontaneous release was measured in wells containing only target cells. For total release, 2 % Triton X-100 was added to the wells to achieve lysis of target cells. Lytic units (LU) were calculated using the inverse of the number of effector cells needed to lyse 30 % of the target cells multiplied by 100.

For series [9], the system named is TALL-104 effector cells on target K-562 cells. Description: Calcein AM release assay (cytotoxicity). The conditions noted are these: effector cells treated 10 µM, 6 h. It counts as cell-based, human. Here is the method:
as §4

This is an account of results in publication PMC9459403, “New inhibitors of cathepsin V impair tumor cell proliferation and elastin degradation and increase immune cell cytotoxicity” (Computational and Structural Biotechnology Journal, 2022).

Entries after “also recorded” stand apart in the source; their conditions may differ. Marks after values point to notes of the source that are not given here. Where a SMILES comes first, the peptide text is derived from it. [ ]: non-standard residue; d: D form. The star is where a group is joined. Sta = CC(C)C[C@H](N)[C@@H](O)CC(=O)O; Isovaleryl = CC(C)CC(=O)* Some results are limits rather than exact numbers.

T2 sequence (P07711 114-333): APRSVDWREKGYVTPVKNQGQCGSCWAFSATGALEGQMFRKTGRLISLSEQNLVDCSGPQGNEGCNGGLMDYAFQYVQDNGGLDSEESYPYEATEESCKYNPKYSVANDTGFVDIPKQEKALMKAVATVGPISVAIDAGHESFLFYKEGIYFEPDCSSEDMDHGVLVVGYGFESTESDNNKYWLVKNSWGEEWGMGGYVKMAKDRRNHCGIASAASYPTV
T1 sequence (O60911 114-334): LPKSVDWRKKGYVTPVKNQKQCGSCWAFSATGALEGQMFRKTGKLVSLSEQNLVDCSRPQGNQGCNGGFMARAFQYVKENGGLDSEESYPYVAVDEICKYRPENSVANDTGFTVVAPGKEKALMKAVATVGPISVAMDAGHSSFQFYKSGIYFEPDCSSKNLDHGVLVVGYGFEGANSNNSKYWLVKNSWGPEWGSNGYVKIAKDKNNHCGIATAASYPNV

The term inhibition denotes the relative decrease from the control value, in per cent. For orientation: Ki means a dissociation constant, usually derived from enzyme kinetics or from competition with a known ligand. With `Cc1cc(OCc2ccccc2)c(C(=O)C2OC2c2cc3ccccc3o2)cc1C` (stereo not drawn) [Compound 27, (3-(Benzofuran-2-yl)oxiran-2-yl)(2-(benzyloxy)-4,5-dimethylphenyl)methanone], on Cathepsin V [1], the inhibition at 50 µM was over 20%. For the same molecule, the inhibition at 50 µM in series [2] worked out at 22.6 ± 5.1%. For the same molecule, the “mode of inhibition of cathepsin V” value on Cathepsin V [3] is reported as “noncompetitive”. Also, on Cathepsin V [3] (mean ± SD (n = 2)), the “Cathepsin V Ki′ (µM)” value is 68.3 ± 4.6 ^g µM and the Ki was 68.3 ± 4.6 µM. In addition, the “fold lower inhibition constant for cathepsin V than cathepsin L” value at Cathepsin V [3] (selectivity cathepsin V vs cathepsin L) is “more than 3 fold”. For the same molecule, in [4], the “mode of inhibition of cathepsin L” value is listed as “competitive” and the Ki was 249 ± 29.8 µM. For the same molecule, the “binding reversibility: cathepsin V activity after 2 h incubation and 100-fold rapid dilution” value at Cathepsin V [5] is given as “tight-binding or irreversible; also recorded: only partially restored”. For the same molecule, the “decrease of elastin-FITC degradation” value in [6] stood at 7.1 ± 2.7%.
On to `CC(C)CC(=O)N[C@H](C(=O)N[C@H](C(=O)N[C@@H](CC(C)C)[C@@H](O)CC(=O)N[C@@H](C)C(=O)N[C@@H](CC(C)C)[C@@H](O)CC(=O)O)C(C)C)C(C)C` [pepstatin] (Isovaleryl-VV[Sta]A[Sta]-OH), for which the “effect on cell proliferation (relative CFSE fluorescence intensity vs DMSO)” value in the series on MCF7 cells is “no effects on cell proliferation”.
As to `CN(C)C(=O)[C@H](Cc1ccccc1)NC(=O)[C@H]1O[C@@H]1C(=O)NCCc1ccccn1` [CLIK-148, reference compound], the “effect on cell proliferation (relative CFSE fluorescence intensity vs DMSO)” value in the series on MCF7 cells was “no effects on cell proliferation”. Also, in [6], the “effect on degradation of elastin-FITC compared to control cells” value is “did not decrease”.
As for `CCCNC(=O)[C@H]1O[C@@H]1C(=O)N[C@H](C(=O)N1CCC[C@@H]1C(=O)OC)[C@@H](C)CC` [Compound 25, Methyl ((2S,3S)-3-(propylcarbamoyl)oxirane-2-carbonyl)-L-isoleucyl-D-prolinate], the inhibition at 50 µM in series [2] turned out to be 83.7 ± 1%. Further, the “mode of inhibition of cathepsin V” value on Cathepsin V [3] was “competitive”. The Ki was determined as 8 ± 0.02 µM at Cathepsin V [3] (mean ± SD (n = 2)) and 9.9 ± 0.9 µM in [4]. Moreover, in [4], the “mode of inhibition of cathepsin L” value is listed as “competitive”. The “binding reversibility: cathepsin V activity after 2 h incubation and 100-fold rapid dilution” value on Cathepsin V [5] is recorded as “irreversible; also recorded: completely blocked”. Moreover, in series [6], the “decrease of elastin-FITC degradation” value amounted to 12.6 ± 4.8%.
Turning to `CCOC(=O)[C@H]1O[C@@H]1C(=O)N[C@@H](CC(C)C)C(=O)NCCC(C)C` [Compound E-64d, reference compound], the “effect on cell proliferation (relative CFSE fluorescence intensity vs DMSO)” value with MCF7 cells was “no effects on cell proliferation”. For the same molecule, the “decrease of elastin-FITC degradation” value in series [6] amounted to 18.4 ± 7.0%. Also, the “cystatin F dimer-to-monomer ratio” value in series [7] was “increased”. Moreover, the “cytotoxicity of NK-92 cells (target cell killing)” value in series [8] is on record as “decreased cytotoxic function”. Further, in series [9], the “cytotoxicity of TALL-104 cells (target cell killing)” value is recorded as “decreased cytotoxic function”.
For the molecule `CC(C)C[C@H](NC(=O)N1CCOCC1)C(=O)N[C@H](/C=C/S(=O)(=O)c1ccccc1)CCc1ccccc1` [LHVS, morpholinurea-leucine-homophenylalanine-vinylsulfone-phenyl, reference compound], the “effect on cell proliferation (relative CFSE fluorescence intensity vs DMSO)” value with MCF7 cells was “no effects on cell proliferation”. The “effect on degradation of elastin-FITC compared to control cells” value in series [6] was “did not decrease”.
